Measured values from PMC7098370 (Toxicological Sciences, 2020).
Marks after values point to notes of the source that are not given here.

Key:
Crl:CD(SD) rats [1] = assay: Combined RDT study with reproduction/developmental toxicity screening test; assay type: in vivo, rat; conditions: for mean body weight of pups below the control: high dose
[2] = Plasma toxicokinetic study; assay type: in vivo, rat; conditions: for C max / K el / t 1/2: 300 mg test item/kg PO
[3] = Mass balance study: urinary and fecal Co excretion after single oral gavage; assay type: in vivo, rat; conditions: single oral bolus 300 mg/kg bw (220 mg Co/kg bw), 72 h
[4] = Bioelution in simulated intestinal fluid; conditions: simulated intestinal fluid pH 7.4, 24 h
rats = assay: Acute oral toxicity testing; assay type: in vivo, rat
Crl:CD(SD) rats [5] = assay: Subchronic 90-day oral RDT study with reproductive toxicity screening; assay type: in vivo, rat
[6] = Bioelution in simulated gastric fluid; conditions: simulated gastric fluid pH 1.5, 2 h, 37°C
Crl:CD(SD) rats [7] = assay: Benchmark dose modeling; set-up: species or system rat; conditions: nonconstant variance
[8] = females, 73.4 mg Co/kg bw/day, end of 90-day oral exposure, experimental group
[9] = females, 220 mg Co/kg bw/day, end of 90-day oral exposure, experimental group
[10] = females, 734 mg Co/kg bw/day, end of 90-day oral exposure, experimental group
[11] = females, 734 mg Co/kg bw/day, recovery group, end of 28-day recovery period
[12] = females, 734 mg Co/kg bw/day, recovery group, end of 90-day oral exposure
[13] = males, 73.4 mg Co/kg bw/day, end of 90-day oral exposure, experimental group
[14] = males, 220 mg Co/kg bw/day, end of 90-day oral exposure, experimental group
[15] = males, 734 mg Co/kg bw/day, end of 90-day oral exposure, experimental group
[16] = males, 734 mg Co/kg bw/day, recovery group, end of 28-day recovery period
[17] = males, 734 mg Co/kg bw/day, recovery group, end of 90-day oral exposure
[18] = female HGB dataset, Exponential 5 model
[19] = male PLT dataset, Exponential 2 model

With `[O]=[Co].[O]=[Co][O][Co]=[O]` [Co3O4, Tricobalt tetraoxide] the “food intake of dams reduced compared with the control” value (Crl:CD(SD) rats [1]; 220 mg Co/kg bw/day, lactation day 1) was 30%, the “mean body weight of pups below the control” value (Crl:CD(SD) rats [1]; lactation day 0/1) was “up to 18%” and the “mean body weight of pups below the control” value (Crl:CD(SD) rats [1]; lactation day 4) was “up to 21%”. For the same compound, the premature deaths (Crl:CD(SD) rats [1]; oral gavage, all doses) was “None of the animals died prematurely”, the “NOAEL (F0 generation)” value (Crl:CD(SD) rats [1]; oral gavage, rats) was 734 mg Co/kg bw/day and the “NOAEL (F1 generation)” value (Crl:CD(SD) rats [1]; oral gavage, rats) was 220 mg Co/kg bw/day. The “NOAEL (reproductive toxicity)” value (Crl:CD(SD) rats [1]; oral gavage, rats) was > 734 mg test item/kg bw/day, the C max ([2]; females) was 1.10 ng/mL and the K el ([2]; females) was 0.0430 h⁻¹. The “t 1/2” value ([2]; females) was 16.1 h, the C max ([2]; males) was 2.08 ng/mL and the K el ([2]; males) was 0.0402 h⁻¹. The “t 1/2” value ([2]; males) was 17.3 h, the oral bioavailability ([2]; single oral bolus, rats, males and females not distinguished) was “below 0.1%” and the “Fecal Excretion (%)” value ([3]; females) was 95.2 % of Co applied. For the same compound, the “Sum of Urinary and Fecal Excretion (%)” value ([3]; females) was 95.3 % of Co applied, the “Urinary Excretion (%)” value ([3]; females) was 0.12 % of Co applied and the “Fecal Excretion (%)” value ([3]; males) was 116.4 % of Co applied. For the same compound, the “Sum of Urinary and Fecal Excretion (%)” value ([3]; males) was 116.5 % of Co applied, the “Urinary Excretion (%)” value ([3]; males) was 0.13 % of Co applied and the “Bioelution of Co in intestinal fluid (% release)” value [4] was 0.05 (24 h) % release. For the same compound, the “Bioelution of Co in intestinal fluid / cobalt release (µg Co/g sample)” value [4] was 385 (24 h) µg Co/g sample, the “Acute LD50 (mg Co/kg bw)” value (rats; OECD 401 or 425) was > 8076 mg Co/kg bw and the “Acute LD50 (mg substance/kg bw)” value (rats; OECD 401 or 425) was “exceeding 11 000 mg substance/kg bw”. For the same compound, the “Acute LD50 (mg substance/kg bw)” value (rats; OECD 401 or 425, listed as Tricobalt Tetraoxide) was > 11 000 mg substance/kg bw, the premature deaths (Crl:CD(SD) rats [5]; 90-day oral gavage, all doses) was “None of the animals died prematurely” and the “LOAEL (systemic)” value (Crl:CD(SD) rats [5]; 90-day oral gavage, rats) was 734 mg Co/kg bw/day. The NOAEL (Crl:CD(SD) rats [5]; 90-day oral gavage, rats) was 220 mg Co/kg bw/day, the “NOAEL (reproductive)” value (Crl:CD(SD) rats [5]; 90-day oral gavage, rats) was > 734 mg Co/kg bw/day and the “HCT, %Diff vs control” value (Crl:CD(SD) rats [5]; [8]) was −0.6%. For the same compound, the “HCT, mean” value (Crl:CD(SD) rats [5]; [8]) was 44.76%, the “HGB, %Diff vs control” value (Crl:CD(SD) rats [5]; [8]) was “+0.2%” and the “HGB, mean” value (Crl:CD(SD) rats [5]; [8]) was 9.51 mmol/L. For the same compound, the “RBC, mean” value (Crl:CD(SD) rats [5]; [8]) was 8.17 ×10E6/µl, the “HCT, %Diff vs control” value (Crl:CD(SD) rats [5]; [9]) was “+4.4%” and the “HCT, mean” value (Crl:CD(SD) rats [5]; [9]) was 46.99%. The “HGB, %Diff vs control” value (Crl:CD(SD) rats [5]; [9]) was “+5.9%”, the “HGB, mean” value (Crl:CD(SD) rats [5]; [9]) was 10.09 mmol/L and the “RBC, %Diff vs control” value (Crl:CD(SD) rats [5]; [9]) was “+5.6%”. The “RBC, mean” value (Crl:CD(SD) rats [5]; [9]) was 8.74 ×10E6/µl, the “HCT, %Diff vs control” value (Crl:CD(SD) rats [5]; [10]) was “+13.9%” and the “HCT, mean” value (Crl:CD(SD) rats [5]; [10]) was 51.27%. The “HGB, %Diff vs control” value (Crl:CD(SD) rats [5]; [10]) was “+16.4%”, the “HGB, mean” value (Crl:CD(SD) rats [5]; [10]) was 11.09 mmol/L and the “RBC, %Diff vs control” value (Crl:CD(SD) rats [5]; [10]) was “+12.9%”. The “RBC, mean” value (Crl:CD(SD) rats [5]; [10]) was 9.35 ×10E6/µl, the “HCT, mean” value (Crl:CD(SD) rats [5]; [11]) was “• 40.76 • .530%” and the “HGB, mean” value (Crl:CD(SD) rats [5]; [11]) was “• 9.28 • .450 mmol/l”. The “RBC, mean” value (Crl:CD(SD) rats [5]; [11]) was “• 7.56 • .573 ×10E6/µl”, the “HCT, mean” value (Crl:CD(SD) rats [5]; [12]) was “• 50.76 ^* • .013%” and the “HGB, mean” value (Crl:CD(SD) rats [5]; [12]) was “• 10.86 ^* • .032 mmol/l”. For the same compound, the “RBC, mean” value (Crl:CD(SD) rats [5]; [12]) was “• 9.12 • .17 ×10E6/µl”, the “HCT, %Diff vs control” value (Crl:CD(SD) rats [5]; [13]) was “+2.6%” and the “HCT, mean” value (Crl:CD(SD) rats [5]; [13]) was 49.53%. The “HGB, %Diff vs control” value (Crl:CD(SD) rats [5]; [13]) was “+2.2%”, the “HGB, mean” value (Crl:CD(SD) rats [5]; [13]) was 10.29 mmol/L and the “PLT, %Diff vs control” value (Crl:CD(SD) rats [5]; [13]) was “+4.2%”. The “PLT, mean” value (Crl:CD(SD) rats [5]; [13]) was 896.5 ×10E3/µl, the “RBC, %Diff vs control” value (Crl:CD(SD) rats [5]; [13]) was “+1.1%” and the “RBC, mean” value (Crl:CD(SD) rats [5]; [13]) was 9.30 ×10E6/µl. The “HCT, %Diff vs control” value (Crl:CD(SD) rats [5]; [14]) was “+9.2%”, the “HCT, mean” value (Crl:CD(SD) rats [5]; [14]) was 52.73% and the “HGB, %Diff vs control” value (Crl:CD(SD) rats [5]; [14]) was “+9.5%”. For the same compound, the “HGB, mean” value (Crl:CD(SD) rats [5]; [14]) was 11.03 mmol/L, the “PLT, mean” value (Crl:CD(SD) rats [5]; [14]) was 796.1 ×10E3/µl and the “RBC, %Diff vs control” value (Crl:CD(SD) rats [5]; [14]) was “+9.6%”. The “RBC, mean” value (Crl:CD(SD) rats [5]; [14]) was 10.08 ×10E6/µl, the “HCT, %Diff vs control” value (Crl:CD(SD) rats [5]; [15]) was “+24.2%” and the “HCT, mean” value (Crl:CD(SD) rats [5]; [15]) was 59.97%. For the same compound, the “HGB, %Diff vs control” value (Crl:CD(SD) rats [5]; [15]) was “+25.4%”, the “HGB, mean” value (Crl:CD(SD) rats [5]; [15]) was 12.63 mmol/L and the “PLT, mean” value (Crl:CD(SD) rats [5]; [15]) was 573.9 ×10E3/µl. For the same compound, the “RBC, %Diff vs control” value (Crl:CD(SD) rats [5]; [15]) was “+22.7%”, the “RBC, mean” value (Crl:CD(SD) rats [5]; [15]) was 11.29 ×10E6/µl and the “HCT, mean” value (Crl:CD(SD) rats [5]; [16]) was “• 50.38 • .126%”. The “HGB, mean” value (Crl:CD(SD) rats [5]; [16]) was “• 10.82 • .075 mmol/l”, the “PLT, mean” value (Crl:CD(SD) rats [5]; [16]) was “• 882.4 • .285 ×10E3/µl” and the “RBC, mean” value (Crl:CD(SD) rats [5]; [16]) was “• 9.47 • .052 ×10E6/µl”. For the same compound, the “HCT, mean” value (Crl:CD(SD) rats [5]; [17]) was “• 60.96** • 9.1E−06%”, the “HGB, mean” value (Crl:CD(SD) rats [5]; [17]) was “• 12.78** • 2.4E−06 mmol/l” and the “PLT, mean” value (Crl:CD(SD) rats [5]; [17]) was “• 645.6** • .0085 ×10E3/µl”. The “RBC, mean” value (Crl:CD(SD) rats [5]; [17]) was “• 11.3** • 7.1E−05 ×10E6/µl”, the “Bioelution of Co in gastric fluid (% release), 2 h” value [6] was 0.2 % release and the “Bioelution of Co in gastric fluid / cobalt release (µg Co/g sample), 2 h” value [6] was 1460 µg Co/g sample. It also gave a BMD1STD (Crl:CD(SD) rats [7]; [18]) of 210 mg Co/kg bw/day, a BMDL1STD (Crl:CD(SD) rats [7]; [18]) of 115 mg Co/kg bw/day and a BMD1STD (Crl:CD(SD) rats [7]; [19]) of 317 mg Co/kg bw/day. For the same compound, the BMDL1STD (Crl:CD(SD) rats [7]; [19]) was 219 mg Co/kg bw/day.
